These results are taken from patent US6541508B2, “Taxane prodrugs” (Nobex Corporation, priority 1999, dated 2003).

Like-named read-outs stand apart in the source and are kept apart here.

The subject of data set [1] is HT-1080/DR4 doxorubicin selected MDR (MRP/LRP phenotype) fibrosarcoma cell line. Put plainly: Cell growth inhibition, SRB assay, HT-1080-DR4. The class given is cell-based, human. Conditions: for IC50: 72-96 h, read-out: IC50 nM (±S.E.) HT-1080-DR4; for Resistance ratio (IC50 resistant cell line/IC50 parental line): MRP/LRP expressing HT1080/DR4 vs HT-1080. In general terms: The SRB assay estimates cell density from bound dye.
Experimental: (§1) Cell lines were propagated as monolayers in RPMI-1640 containing 5% FCS, 5% NuSerum IV, 20 mM HEPES, 2 mM L-glutamine at 37° C. in a 5% CO2 humidified atmosphere.
(§2) Paclitaxel was solubilized in 100% DMSO. TX-001 and 002 were solubilized in sterile H2O acidified with 10% 1 N HCl. For the first experiment, 4.0 mM stocks of TX-001 and 002 were prepared. Solutions of TX-001 and TX-002 contained clear needle-like and cast-like precipitates and were fairly viscous (Experiment 1). For the second experiment (Experiment 2), less concentrated stock solutions (0.4 mM) of each compound were prepared in sterile H2O acidified with 10% 1 N HCl. The same type of precipitates were noted, however neither solution was viscous. All compounds were further diluted in RPMI-1640 containing 10 mM HEPES.
Assessment of cell growth inhibition was determined in 96 well microtiter plates according to the method of Skehan et al., “New Colorimetric Cytotoxicity Assay for Anticancer-Drug Screening, Articles 82(13):1107-1112 (1990). Briefly, cells were plated with 400-1800 cells/well in 96 well plates and incubated at 37° C. 15-18 hr prior to drug addition to allow for cell attachment. Each cell line was exposed to 12 concentrations of compound (a 6 log range), 5 replicate data points per compound concentration. […] Assays were terminated with 100 μl of ice-cold 50% TCA. After 1 hr at 4° C., plates were washed 5 times with tap water to remove TCA, low-molecular-weight metabolites and serum proteins. 50 μl of 0.4% sulforhodamine B (SRB) was added to each well. Following a five minute incubation at room temperature, plates were rinsed 5 times with 0.1% acetic acid and air dried. Bound dye was solubilized with 10 mM Tris Base (pH 10.5) for 5 min on a gyratory shaker. Optical density was measured at 570 nm.
Data were fit with the Sigmoid-Emax concentration-effect model (N. H. G. Holford and L. B. Scheiner, “Understanding the dose-effect relationship: Clinical applications of pharmacokinetic-pharmacodynamic models,” Clin. Pharmacokin. 6:429-453 (1981)) with nonlinear regression, weighted by the reciprocal of the square of the predicted response.

Data set [2] concerns MDA435/LCC6-WT breast carcinoma cell line. The experiment in a line: Cell growth inhibition, SRB assay, LCC6-WT. The class given is cell-based, human. Conditions: read-out: IC50 nM (±S.E.) LCC6-WT.
Experimental: as §1, §2
Assessment of cell growth inhibition was determined in 96 well microtiter plates according to the method of Skehan et al., “New Colorimetric Cytotoxicity Assay for Anticancer-Drug Screening, Articles 82(13):1107-1112 (1990). Briefly, cells were plated with 400-1800 cells/well in 96 well plates and incubated at 37° C. 15-18 hr prior to drug addition to allow for cell attachment. Each cell line was exposed to 12 concentrations of compound (a 6 log range), 5 replicate data points per compound concentration. […] Assays were terminated with 100 μl of ice-cold 50% TCA. After 1 hr at 4° C., plates were washed 5 times with tap water to remove TCA, low-molecular-weight metabolites and serum proteins. 50 μl of 0.4% sulforhodamine B (SRB) was added to each well. Following a five minute incubation at room temperature, plates were rinsed 5 times with 0.1% acetic acid and air dried. Bound dye was solubilized with 10 mM Tris Base (pH 10.5) for 5 min on a gyratory shaker. Optical density was measured at 570 nm. […]
The test system of data set [3] is A121 ovarian carcinoma cell line. Put plainly: Cell growth inhibition, sulforhodamine B (SRB) assay, A121. The class given is cell-based, human. Conditions: 72-96 h, read-out: IC50 nM (±S.E.) A121.
Experimental: as §1, §2
(§3) Assessment of cell growth inhibition was determined in 96 well microtiter plates according to the method of Skehan et al., “New Colorimetric Cytotoxicity Assay for Anticancer-Drug Screening, Articles 82(13):1107-1112 (1990). Briefly, cells were plated with 400-1800 cells/well in 96 well plates and incubated at 37° C. 15-18 hr prior to drug addition to allow for cell attachment. Each cell line was exposed to 12 concentrations of compound (a 6 log range), 5 replicate data points per compound concentration. […] Assays were terminated with 100 μl of ice-cold 50% TCA. […] Optical density was measured at 570 nm. […]
The subject of data set [4] is HT-1080 fibrosarcoma cell line. Put plainly: Cell growth inhibition, SRB assay, HT-1080. The class given is cell-based, human. Conditions: 72-96 h, read-out: IC50 nM (±S.E.) HT-1080.
Experimental: as §1, §2, §3
Data set [5] can be described thus: Stability of trifluoroacetate product fraction solutions on storage. The class given is physicochemical. Conditions: preparative HPLC fraction solutions, initially 98.8% average purity; 8° C. for 16 days; analytical HPLC.
The subject of data set [6] is LCC6-MDR1 Pgp transfected breast carcinoma cell line. The experiment in a line: Cell growth inhibition, SRB assay, LCC6-MDR. Conditions: LCC6-MDR1 variant line overexpressing Pgp vs LCC6-WT.
Experimental: as §1, §2, §3
Data set [7] relates to paclitaxel-resistant cells. Conditions: cited from earlier work.
The test system of data set [8] is tubulin. Conditions: cited from earlier work.
Setting [9] is: Experiment 1, TX-001/TX-002 from 4.0 mM stocks.
Setting [10] is: Experiment 2, TX-001/TX-002 from 0.4 mM stocks.

As for “2′-Succinamidyl-PEG2-amine-paclitaxel Acetate [Compound 4]”, the IC50 in data set [1] (setting [9]) was determined as 8.9 ± 0.4 nM; in data set [1] (setting [10]) it was 36 ± 1.5 nM; in data set [2] (4.0 mM stock solutions stored at 4° C. for 7 days) it was 2.7 ± 0.4 nM; in data set [2] (Experiment 1, TX-001/TX-002 from 4.0 mM stocks, 72-96 h), 4.9 ± 0.5 nM; in data set [2] (Experiment 2, TX-001/TX-002 from 0.4 mM stocks, 72-96 h), 13 ± 0.5 nM; in data set [3] (setting [9]) it was 13 ± 0.5 nM. Moreover, the values for the 50% inhibitory concentration (IC50) in data set [3] (setting [10]), in data set [4] (setting [9]) and in data set [4] (setting [10]) were 37 ± 1.2 nM, 4.5 ± 0.4 nM and 19 ± 0.7 nM, respectively.
For the compound “2′-Succinamidyl-PEG2-amine-paclitaxel Trifluoroacetate [Compound 3]”, the “average purity after storage” value in data set [5] came to 97.4%.
Take `CC(=O)O.CC(=O)OC1C(=O)C2(C)C(O)CC3OCC3(OC(C)=O)C2C(OC(=O)c2ccccc2)C2(O)CC(OC(=O)C(OC(=O)CCCC(=O)NCCOCCOCCN)C(NC(=O)c3ccccc3)c3ccccc3)C(C)=C1C2(C)C` (stereo not shown) [Compound 5, 2′-Glutaramidyl-PEG2-amine-paclitaxel acetate]: the “Resistance ratio (IC50 resistant cell line/IC50 parental line)” value in data set [1] was 1.1-1.5 fold; in data set [6], 47-60 fold.
On to `CC(=O)O[C@@]12CO[C@@H]1C[C@H](O)[C@@]1(C)C(=O)[C@H](O)C3=C(C)[C@@H](OC(=O)[C@H](O)[C@@H](NC(=O)OC(C)(C)C)c4ccccc4)C[C@@](O)([C@@H](OC(=O)c4ccccc4)[C@H]21)C3(C)C` [Docetaxel, docetaxel], for which the “activity relative to paclitaxel” value in data set [7] is on record as “about five times as active as paclitaxel”.
In the case of `CC(=O)O[C@H]1C(=O)[C@@]2(C)[C@H]([C@H](OC(=O)c3ccccc3)[C@]3(O)C[C@H](OC(=O)[C@H](O)[C@@H](NC(=O)c4ccccc4)c4ccccc4)C(C)=C1C3(C)C)[C@]1(OC(C)=O)CO[C@@H]1C[C@@H]2O` [Paclitaxel, reference compound], the “Resistance ratio (IC50 resistant cell line/IC50 parental line)” value in data set [1] is reported as 1.1-1.4 fold; in data set [6], 65-92 fold.
A-nor-paclitaxel: the “tubulin-assembly activity relative to paclitaxel” value in data set [8] is reported as “only three times less than that of paclitaxel”.

Usually IC50 stands for the midpoint of a concentration-inhibition curve.
